From ChEMBL document CHEMBL1201862, “PubChem BioAssay data set” (2004)
Calls of active or inactive are those of the source.

Experiments:
[1] = target: Voltage-gated inwardly rectifying potassium channel KCNH2 (Homo sapiens, UniProt Q12809); assay: concentration-dependent hERG rescue from blockers – cell-based, thallium flux, dose response (AID 2121); type: ADME
[2] = target: Major prion protein (Homo sapiens, UniProt P04156); type: functional, cell-based
[3] = cells
[4] = target: Eukaryotic translation initiation factor 4E (Mus musculus, UniProt P63073); assay: blockers of eIF4G binding by eIF4E – biochemical, TR-FRET, dose response (AID 855); type: functional;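 further: potency for disrupting eIF4E binding to eIF4GI seen as loss of FRET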
[5] = viability loss in THP-1 monocytes – THP-1 cells, cytotoxicity control for Vif-APOBEC3G degradation inhibitor project, dose response (AID 1117359); type: functional; settings: THP-1
[6] = target: T1, Protein skinhead-1 (Caenorhabditis elegans, UniProt P34707); type: functional
T1 sequence (P34707 whole entry): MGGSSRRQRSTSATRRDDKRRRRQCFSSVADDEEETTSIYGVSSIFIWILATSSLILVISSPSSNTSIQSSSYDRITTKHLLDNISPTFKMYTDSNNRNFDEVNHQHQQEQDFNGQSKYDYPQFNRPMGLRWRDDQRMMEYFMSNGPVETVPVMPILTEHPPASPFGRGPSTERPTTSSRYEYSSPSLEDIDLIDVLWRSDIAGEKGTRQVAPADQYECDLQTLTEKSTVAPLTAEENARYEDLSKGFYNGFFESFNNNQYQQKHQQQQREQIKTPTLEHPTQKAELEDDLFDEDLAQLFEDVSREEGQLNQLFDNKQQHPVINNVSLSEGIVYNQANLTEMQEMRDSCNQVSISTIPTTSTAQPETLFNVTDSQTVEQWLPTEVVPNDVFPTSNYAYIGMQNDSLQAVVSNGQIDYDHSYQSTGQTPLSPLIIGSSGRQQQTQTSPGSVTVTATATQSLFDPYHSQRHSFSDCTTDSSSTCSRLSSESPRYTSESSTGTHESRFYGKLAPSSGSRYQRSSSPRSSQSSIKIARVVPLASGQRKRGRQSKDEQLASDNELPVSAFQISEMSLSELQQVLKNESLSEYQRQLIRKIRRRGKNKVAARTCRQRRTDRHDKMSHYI

[7] = off-target signal loss in HeLa-CEM21 co-culture – HeLa F-luc CTL cells, cherry-picked, counter-screen for HIV-1 Env fusion inhibitor project, dose response (AID 652040); type: functional, cell-based;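 further: potency for signal decrease marking cytotoxic or nonspecific inhibition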
[8] = HIV-1 AD8 envelope cell-cell fusion blockers – cherry-pick, dose response (AID 652062); type: functional, cell-based;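 further: luciferase signal from cell-cell fusion driven by HIV-1 clade B AD8 Env; potency is for inhibitors of fusion seen as a drop in luminescence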
[9] = tested on: HEK293; assay: EBV LMP1 TES2 canonical NF-kB signalling blockers – cell-based, HEK293, luciferase, cherry-pick, dose response (AID 588343); type: functional; settings: Homo sapiens
[10] = blockers of bursicon-stimulated LGR2 cAMP reporter – cell-based, HEK293, CRE-luciferase reporter, cherry pick, set 2, dose response (AID 743343); type: functional;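 further: transfected cells were stimulated with diluted bursicon conditioned medium after compound addition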
[11] = blockade of melanocortin 4 receptor signaling – cell-based, plate reader, cherry pick, counter-screen for LGR2 antagonist project, dose response (AID 743444); type: functional;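 further: transfected HEK 293 cells stimulated with alpha-MSH peptide; potency of inhibitors of the alpha-MSH evoked signal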
[12] = target: T2, Acyl-homoserine lactone acylase PvdQ (Pseudomonas aeruginosa (strain LESB58), UniProt Q9I194); assay: PvdQ acylase enzyme activity blockers – biochemical, fluorescence, plate reader and imaging, cherry-picks, dose response (AID 493231)
T2 sequence (Q9I194 whole entry): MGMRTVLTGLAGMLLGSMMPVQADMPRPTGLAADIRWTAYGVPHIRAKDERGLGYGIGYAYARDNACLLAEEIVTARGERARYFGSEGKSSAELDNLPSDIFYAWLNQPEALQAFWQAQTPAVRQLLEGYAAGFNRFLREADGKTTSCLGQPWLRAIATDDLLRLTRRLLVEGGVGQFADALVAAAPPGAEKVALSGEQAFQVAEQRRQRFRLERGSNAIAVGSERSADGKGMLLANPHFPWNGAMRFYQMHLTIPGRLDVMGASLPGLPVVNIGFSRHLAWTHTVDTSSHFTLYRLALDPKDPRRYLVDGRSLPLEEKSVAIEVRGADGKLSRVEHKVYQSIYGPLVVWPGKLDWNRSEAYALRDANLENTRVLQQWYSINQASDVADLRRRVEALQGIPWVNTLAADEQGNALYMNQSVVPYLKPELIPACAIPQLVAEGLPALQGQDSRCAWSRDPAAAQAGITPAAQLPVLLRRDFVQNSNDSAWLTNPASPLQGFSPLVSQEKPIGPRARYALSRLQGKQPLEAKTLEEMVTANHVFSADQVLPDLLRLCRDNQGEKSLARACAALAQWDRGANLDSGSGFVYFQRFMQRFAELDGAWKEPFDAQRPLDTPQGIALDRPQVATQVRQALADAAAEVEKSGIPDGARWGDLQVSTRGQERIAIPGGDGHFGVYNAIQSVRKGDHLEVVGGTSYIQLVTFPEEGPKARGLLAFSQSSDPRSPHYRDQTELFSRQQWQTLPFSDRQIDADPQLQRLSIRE

[13] = target: Luciferin 4-monooxygenase (Photinus pyralis, UniProt P08659); assay: Counter Screen for Luciferase-based Assay Positives. [Related pubchem assays: 620, 618, 411 ]
[14] = tested on: HT-1080; assay: HT1080 cell viability loss – fluorescence readout (AID 620); type: functional, cell-based; settings: Homo sapiens
[15] = target: Kallikrein-7 (Homo sapiens, UniProt P49862); assay: Fluorescence Intensity-based biochemical primary high throughput dose response assay to identify activators of kallikrein-7 (K7) zymogen.
[16] = target: G-protein coupled receptor 55 (Homo sapiens, UniProt Q9Y2T6); assay: selective activators of receptor GPR55 – imaging, U2OS cells, beta-arrestin-GFP redistribution, primary screen (AID 1961); type: functional
[17] = target: Cytochrome P450 3A4 (Homo sapiens, UniProt P08684);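 further: CYP3A4 tested as one member of a cytochrome P450 panel screen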
[18] = target: FAD-linked sulfhydryl oxidase ALR (Homo sapiens, UniProt P55789); assay: ALR-catalysed DTT oxidation blockers – biochemical, H2O2 detection, luminescence, cherry-pick, dose response (AID 493248)
[19] = THP-1 cell cytotoxicity, dose response, cytotoxicity control for non-replicating M. tuberculosis project (AID 489025); type: functional
[20] = HepG2 cell cytotoxicity, dose response, cytotoxicity control for non-replicating M. tuberculosis project (AID 489018); type: functional; settings: Mycobacterium tuberculosis
[21] = cells; type: functional
[22] = tested on: INS1; assay: INS-1E survival protection against cytokine death – cell-based, luminescence, retest, dose response (AID 449756); type: functional; settings: Rattus norvegicus;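 further: cell death triggered by IL-1 beta plus TNF-alpha plus IFN-gamma mixture; protective hits raise ATP signal compared with cytokine alone wells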
[23] = reduction of Shn3 3'UTR-driven luciferase in osteoblasts – cell-based, Clone20 osteoblasts, firefly luciferase, cherry-picked, dose response (AID 624132); type: functional;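 further: firefly luciferase luminescence from reporter carrying the Shn3 3'UTR in osteoblasts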
[24] = loss of viability in HepG2 cells – cell-based, CellTiter-Glo, cherry-picked, cytotoxicity control for Shn3 inhibitor project, dose response (AID 624134); type: functional
[25] = non-specific 3'UTR reporter inhibition in Clone20-Shn3RL – cell-based, Renilla luciferase, cherry-picked, counter-screen for Shn3 inhibitor project, dose response (AID 624133); type: functional
[26] = blockers of HIV-1 envelope-mediated cell-cell fusion – cherry-pick, dose response (AID 652057); type: functional, cell-based
[27] = viability loss in CEM21 cells – cell-based, CellTiter-Glo luminescence, cherry-picked, cytotoxicity control for viral fusion inhibitor project, dose response (AID 652042); type: functional;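 further: potency for signal decrease meaning cytotoxicity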
[28] = blockers of HIV-1 ZM109 envelope-driven cell-cell fusion – HeLa effector, CEM target cells, luciferase, cherry-pick, dose response (AID 652058); type: functional, cell-based;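 further: luciferase signal from HIV-1 Env mediated cell-cell fusion of effector and target cells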
[29] = tested on: Streptococcus sp. 'group A'; assay: Streptococcus pyogenes SK(-)GAS viability under kanamycin – luminescence, BacTiterGlo, confirmation, counter-screen for streptokinase expression inhibitor project, dose response (AID 1900); type: functional, organism-based
[30] = microbe, parasite or virus in culture; type: functional; settings: Mycobacterium tuberculosis
[31] = tested on: Streptococcus; assay: GAS UMAA2166 growth inhibition – luminescence, BacTiterGlo, counter-screen for streptokinase expression inhibitor project, dose response (AID 1915); type: functional, organism-based;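 further: potency for reduction of bacterial viability or growth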
[32] = toxicity toward HepG2 liver cells – cell-based, plate reader, cherry-pick, antagonist series, cytotoxicity control, dose response (AID 743416); type: functional
[33] = target: Paired box protein Pax-8 (Homo sapiens, UniProt Q06710); assay: PAX8 transcriptional activity inhibition in RMG-I – RMG-I cells, luciferase, cherry-pick, dose response (AID 687027); type: functional, cell-based;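 further: luciferase reporter driven by Pax8 target thyroperoxidase promoter measured by SteadyGlo luminescence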
[34] = OVCAR-3 cell viability loss – plate reader, dry powder samples, PAX8 inhibitor project, dose response (AID 743044); type: functional, cell-based
[35] = OVCAR8 cell viability loss – plate reader, dry powder samples, PAX8 project, dose response (AID 743197); type: functional, cell-based; settings: OVCAR-8
[36] = growth inhibition of yeast DHODH-expressing 3D7 parasites – SYBR Green, dry powder samples, dose response (AID 1159570); type: functional, cell-based;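 further: parasite growth measured after 72 hours of compound exposure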
[37] = P. falciparum Dd2 growth inhibitors, dose response, SYBR Green, cherry-picked samples (AID 1159567); type: functional, cell-based
[38] = Dd2 malaria parasite growth inhibition potency – SYBR Green, dry powder samples, dose response (AID 1159566); type: functional, cell-based;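 further: potency for growth inhibition with lower SYBR green DNA signal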
[39] = growth inhibition of PfATP4-mutant resistant parasites – NITD609-resistant line, SYBR Green, dry powder, dose response (AID 1159571); type: functional, cell-based;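 further: parasites synchronized at ring stage by sorbitol before testing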

O=C(NC(=S)Nc1nc(-c2ccc(Br)cc2)cs1)c1ccco1
EC50 [1]: 7.39 µM (active)

Cc1nc(SC2CCOC2=O)c2c(C)c(C)sc2n1 (stereo unspecified)
IC50 [2]: 1.93 µM (active) | IC50 [3]: > 138 µM (inactive)

CC(=O)Nc1cccc(NC(=S)Nc2ccc(F)c(Cl)c2)c1
IC50 [4]: 50 µM (inactive)

CC(C)CCNC(=O)Cn1c2c(c(-c3ccccc3Cl)cc1=O)CCC2
CC50 [5]: > 40 µM (active)

COc1ccc(S(=O)(=O)n2ccc(-c3ccc(OCCN(C)c4ccccn4)cc3)n2)cc1
IC50 [6]: > 100 µM (inactive) | AC50 [7]: 1.81 µM (active) | AC50 [8]: 6.63 µM (active)

COc1ccc(OCC(=O)Nc2nccs2)cc1
AC50 [9]: 4.63 µM (active) | AC50 [10]: 5.35 µM (active) | AC50 [11]: 5.99 µM (active)

O=C(NC1CCCCCCC1)c1cccc(Cl)c1
AC50 [12]: 5.02 µM (active)

OCCCNc1[nH]cnc2c3ccccc3nc1-2
CC50 [5]: > 40 µM (active)

Cc1cc(C(=O)CSc2nnc(-c3cccs3)o2)c(C)n1-c1ccccc1
EC50 [13]: > 100 µM (not active) | EC50 [14]: 22.6 µM (active) | AC50 [9]: 5.59 µM (active)

Cc1ccc(-c2nc(-c3ccccc3)no2)cc1
EC50 [13]: 1.67 µM (active) | EC50 [14]: > 50 µM (not active)

O=C(NC(=S)Nc1ccccc1)c1cc(-c2ccccc2)nc2ccccc12
EC50 [1]: 0.38 µM (active)

COc1ccc2cc(C(=O)C3CCCN(C(=O)c4cccnc4)C3)ccc2c1 (stereo unspecified)
EC50 [15]: 23.7 µM (inactive)

CCCOC(=O)Oc1ccc2c(=O)c(Oc3cc(C)cc(C)c3)coc2c1
EC50 [15]: 3.19 µM (active)

N#CC1=C(N)OC2=C(CC/C2=C\c2ccccc2)C1c1ccccc1 (stereo unspecified)
EC50 [16]: > 32 µM (inactive) | AC50 [17]: 39.8 µM (inconclusive)

COc1cc(NC(=O)c2ccco2)c(OC)cc1NC(=O)CCC(=O)Nc1cc(C)ccc1C
EC50 [15]: 26.8 µM (inactive)

O=C(NC1CCSC1)c1cccc(Cl)c1 (stereo unspecified)
AC50 [12]: 4.11 µM (active)

Cc1nc2cc(-c3nc4cc(N)ccc4o3)ccc2[nH]1
EC50 [13]: > 100 µM (not active) | EC50 [14]: > 50 µM (not active) | AC50 [18]: 1.72 µM (active)

C=CCn1c(C)cc(C2=NN=C(NCc3ccccc3)SC2)c1C
CC50 [19]: 13.8 µM (active) | CC50 [20]: > 20 µM (active) | IC50 [21]: 10.8 µM (active)

CC(C)(C)n1ncc2c(=O)n(Cc3cccc(Cn4cnc5c(cnn5C(C)(C)C)c4=O)c3F)cnc21
AC50 [22]: 3.27 µM (active) | AC50 [23]: 1.09 µM (active) | AC50 [24]: 19.4 µM (active) | AC50 [25]: 0.84 µM (active) | AC50 [26]: 17.9 µM (active) | AC50 [27]: 35.2 µM (active) | AC50 [28]: 1.74 µM (active) | AC50 [7]: 35.4 µM (active) | AC50 [8]: 6.31 µM (active)

Cc1cccc(/C=C2/SC(N/N=C3\CC4CCC3(C)C4(C)C)=NC2=O)c1 (stereo unspecified)
EC50 [29]: 1.83 µM (active) | CC50 [30]: > 40 µM (active) | EC50 [1]: 0.12 µM (active) | EC50 [31]: 1.3 µM (active)

COc1ccc2c(c1)CCC1(C)CC(=O)C(Br)=C21 (stereo unspecified)
IC50 [2]: 3.21 µM (active) | IC50 [3]: > 138 µM (inactive)

Cc1ccc(S(=O)(=O)N2[C@@H](CO)CO[C@H]2CC(=O)OCc2ccccc2)cc1
AC50 [32]: > 52 µM (inactive)

C[C@@H]1CN([C@H](C)CO)C(=O)c2cc(NC(=O)c3ccccc3)ccc2O[C@@H](C)CCCCO[C@@H]1CN(C)Cc1ccc(C(F)(F)F)cc1
AC50 [33]: 8.24 µM (active) | AC50 [34]: 50.2 µM (active) | AC50 [35]: > 70 µM (inactive)

CO[C@H](CN(C)S(=O)(=O)c1ccc(Cl)cc1)[C@@H](C)CN([C@@H](C)CO)S(=O)(=O)c1cccc(Cl)c1
AC50 [26]: 2.93 µM (active) | AC50 [27]: 39.7 µM (active) | AC50 [28]: 5.98 µM (active) | AC50 [8]: 25.1 µM (active)

COC(=O)[C@H](CC1(c2cn(S(=O)(=O)CC[Si](C)(C)C)c3ccccc23)C(=O)Nc2ccccc21)NC(=O)OC(C)(C)C (stereo partly specified)
IC50 [2]: 11.7 µM (inactive) | IC50 [3]: > 138 µM (inactive)

CO/N=C/c1ccc(Sc2ccccc2)c([N+](=O)[O-])c1
AC50 [12]: 97.2 µM (active)

COc1ccc2c3c(n(C)c2c1)[C@@H](CO)N(C(=O)C1CCCC1)CC31CN(C(=O)Nc2cccc(F)c2)C1
AC50 [36]: 0.818 µM (active) | AC50 [37]: 1.32 µM (active) | AC50 [38]: 1.88 µM (active) | AC50 [39]: 1.24 µM (active)
